{
  "source": "patent US5663196A",
  "about": "“Methods for treating neoplastic disorders” (Boston University, priority 1993, dated 1997)",
  "key": {"[1]": {"system": "EL-4 cells (type T lymphoma)", "experiment": "Trypan Blue cell viability, EL-4", "assay_type": "cell-based", "settings": "Mus musculus, EL4, read-out: Trypan Blue Cell Viability (%)", "from_the_text": "(§1) 1) The Trypan Blue Dye Exclusion Test for monitoring ceil viability as described by Phillips, H. J., in Tissue Culture Methods and Applications; Kruse, P. F., Jr., Patterson, M. K., Eds.; Academic Press, New York, 1973, 406, and by Wu, Y. W., Chik, L. L., Knazek, R. A. Cancer Research 1989, 49, 3754. The results of this assay are expressed as a percentage of viable cells:\n(§2) [% viable cells]=[no. of alive cells]/[total no. of cells]×100\n(§3) where the total no. cells=dead cells+alive cells. The results are compared directly with an untreated control, which typically show a three-to-four-fold increase for cancer cells, and a two-fold increase for normal cells. Treatments resulting in [% viable cells] of <30% are considered cytotoxic. Therefore, the trypan blue dye exclusion test was used to assess the number of dead and alive cells using various cell lines upon treatment with the crude and purified agent. This test provides a simple clue to the acute or late onset of a cytotoxic response. Readings for this and all other in vitro assays were taken 48 hours after treatment with the unpurified agent, and also […] after treatment for the purified agent. Thus, the trypan blue dye exclusion assay functions to confirm whether or not the cells were viable at the time readings were taken for other bioassays."}, "[2]": {"system": "LK lymphoma cells", "experiment": "Trypan Blue cell viability, LK", "assay_type": "cell-based", "settings": "Mus musculus, read-out: Trypan Blue Cell Viability (%)", "from_the_text": "as §1, §2, §3\nWith the preferred purified active agent in hand, ^3 H-thymidine incorporation and trypan blue assays were initially performed at different dosages using LK and BW lymphoma ceil lines in order to confirm the activity of the preferred purified active agent, and to bracket the active concentration range for the preferred purified active agent. With a molecular weight of 328, a 1 μg/mL solution corresponds to 3 μM concentration. In addition, the time course of cell viability in the trypan blue assay was also monitored in order to best optimize subsequent assays to ensure that the cells were still viable at the time of measurement, and to ensure a nontoxic response of the cells to the agent. Toxicity of the agent would have been observed as cell death within 2 hours. The trypan blue assays (Table 7), run at 30 μM and 3 μM of purified agent (10 and 1 μg/mL, respectively), indicated excellent cell viability after 24 hours, though with a significant drop in viability after 48 hours at a 30 μM dose of preferred purified active agent. Consequently the results of the in vitro assays employing purified agent were all recorded after 24 hours. In the ^3 H-thymidine incorporation assay (Table 8), dosages ranging from 0.1 to 250 μg/mL were examined."}, "[3]": {"system": "C7 cloned T-cells", "experiment": "Trypan Blue cell viability, C7", "assay_type": "cell-based", "settings": "Mus musculus, read-out: Trypan Blue Cell Viability (%)", "from_the_text": "as §1, §2, §3\nEach of these three fractions were then tested in the trypan blue and ^3 H-thymidine incorporation assays along with the original CsA as a control, against the LS cell line, which was the most sensitive of the cancer lines (Tables 3 and 4). […] The results of the trypan blue and ^3 H-thymidine incorporation assays against the three cell lines are compiled in Tables 5a-5f."}, "[4]": {"system": "BW (BW5147) lymphoma cells", "experiment": "3H-Thymidine Incorporation, BW (BW5147)", "assay_type": "cell-based, mouse", "from_the_text": "(§4) 2) The ^3 H-Thymidine Incorporation Test as described by Ju, S. T., Dorf, M. E. J. Immunol. 1985, 134, 3722. This test was used for monitoring cellular proliferation by monitoring DNA synthesis. The results are expressed as percent ^3 H-thymidine incorporation relative to an untreated control:\n(§5) [% ^3 H-thymidine incorporation]=[cpm agent treated cells]/[cpm\n(§6) where cpm=counts per minute. Treatments resulting in [% ^3 H-thymidine incorporation] of <50% are considered active.\nThe ^3 H-thymidine incorporation assay therefore measures the amount of DNA synthesis when the cells are in the \"S\" phase of the cell cycle, and is used to assess cell proliferation. […]\nWith the preferred purified active agent in hand, ^3 H-thymidine incorporation and trypan blue assays were initially performed at different dosages using LK and BW lymphoma ceil lines in order to confirm the activity of the preferred purified active agent, and to bracket the active concentration range for the preferred purified active agent. […] In addition, the time course of cell viability in the trypan blue assay was also monitored in order to best optimize subsequent assays to ensure that the cells were still viable at the time of measurement, and to ensure a nontoxic response of the cells to the agent. […] Consequently the results of the in vitro assays employing purified agent were all recorded after 24 hours. […]"}, "[5]": {"system": "CT26 cells (colon adenocarcinoma)", "experiment": "3H-Thymidine Incorporation, CT26", "assay_type": "cell-based", "settings": "Mus musculus, read-out: 3H-Thymidine Incorporation (DNA Synthesis) Inhibition (%)", "from_the_text": "as §4, §5, §6\n(§7) The ^3 H-thymidine incorporation assay therefore measures the amount of DNA synthesis when the cells are in the \"S\" phase of the cell cycle, and is used to assess cell proliferation. Cancer cells, which have a very rapid cell cycle turnover, normally incorporate large amounts of tritium (^3 H) unless inhibited by an exogenous agent. […] While the trypan blue dye exclusion test is an indicator of cell death, the ^3 H-thymidine incorporation test indicates a cytostatic status (not necessarily cytotoxic) of the cell. As previously noted, this latter test was the primary screen used to guide the isolation to the active agent."}, "[6]": {"system": "RDM-4 cells (type T lymphoma)", "experiment": "3H-Thymidine Incorporation, RDM-4", "assay_type": "cell-based", "settings": "Mus musculus, read-out: 3H-Thymidine Incorporation (DNA Synthesis) Inhibition (%)", "from_the_text": "as §4, §5, §6, §7\nThe final in vitro assays performed with the preferred purified active agent were intended to examine the scope of the activity in the trypan blue assay against a wider range of tumor cell lines (Tables 10 and 11). These cell lines included a […] lymphoma BW8767, a BW mutant which is more resistant than the BW cell lines used in other assays, as evidenced by the results in Tables 10 and 11."}, "[7]": {"system": "CT26 colon adenocarcinoma cells", "experiment": "Lung metastases of CT26 in BALB/C mice, 3rd study", "assay_type": "in vivo", "settings": "day 5; 5 μg/g mouse", "procedure": "The in vivo activity of the active agent was assessed against two tumor cell types injected into mice: CT26 and Ehrlich Ascites (EAT) tumor cell lines. The protocols of the \"National Cancer Institute, Drug Research and Development Division of Cancer Treatment, Instruction 14, Screening Data Summary Interpretation and Outline of Current Screen\" were followed.\nIn a subsequent experiment, mice that had been implanted with CT26 cells as above were treated on day 5 with the solid residue from the evaporation of CsA (100 μg/g mouse), and with the preferred purified active agent 11β,13-dihydrolactucin (5 μg/g mouse)."}},
  "note": "Where two headings read alike, the source gives them in different places.",
  "data": [
    {"smiles": "CC1=C2C(=O)C=C(CO)[C@@H]2[C@H]2OC(=O)[C@@H](C)[C@@H]2[C@@H](O)C1", "note": "[11β,13-dihydrolactucin, 3,6-dimethyl-4-hydroxy-9-hydroxymethyl-3,3a,4,5,9a,9b-hexahydroazuleno[4,5-b]furan-2,7-dione]", "values": [
      {"measurement": "viability at 0.1 µg/mL", "setting": "[1]", "value": 100, "unit": "%"},
      {"measurement": "viability at 0.5 µg/mL", "setting": "[1]", "value": 100, "unit": "%"},
      {"measurement": "viability at 1 µg/mL", "setting": "[1]", "value": 100, "unit": "%"},
      {"measurement": "viability at 10 µg/mL", "setting": "[1]", "value": 100, "unit": "%"},
      {"measurement": "viability at 1 µg/mL", "setting": "[2]; 2 h", "value": 100, "unit": "%"},
      {"measurement": "viability at 10 µg/mL", "setting": "[2]; 2 h", "value": 100, "unit": "%"},
      {"measurement": "viability at 1 µg/mL", "setting": "[2]; 5 h", "value": 100, "unit": "%"},
      {"measurement": "viability at 10 µg/mL", "setting": "[2]; 5 h", "value": 100, "unit": "%"},
      {"measurement": "viability at 1 µg/mL", "setting": "[2]; 12 h", "value": 100, "unit": "%"},
      {"measurement": "viability at 10 µg/mL", "setting": "[2]; 12 h", "value": 100, "unit": "%"},
      {"measurement": "viability at 1 µg/mL", "setting": "[2]; 24 h", "value": 100, "unit": "%"},
      {"measurement": "viability at 10 µg/mL", "setting": "[2]; 24 h", "value": 85, "unit": "%"},
      {"measurement": "viability at 1 µg/mL", "setting": "[2]; 36 h", "value": 90, "unit": "%"},
      {"measurement": "viability at 10 µg/mL", "setting": "[2]; 36 h", "value": 72, "unit": "%"},
      {"measurement": "viability at 1 µg/mL", "setting": "[2]; 48 h", "value": 90, "unit": "%"},
      {"measurement": "viability at 10 µg/mL", "setting": "[2]; 48 h", "value": 60, "unit": "%"},
      {"measurement": "viability at 0.1 µg/mL", "setting": "[3]", "value": 100, "unit": "%"},
      {"measurement": "viability at 0.5 µg/mL", "setting": "[3]", "value": 100, "unit": "%"},
      {"measurement": "viability at 1 µg/mL", "setting": "[3]", "value": 100, "unit": "%"},
      {"measurement": "viability at 10 µg/mL", "setting": "[3]", "value": 90, "unit": "%"},
      {"measurement": "ED50, 3H-thymidine incorporation", "setting": "[4]", "value": "micromolar range"},
      {"measurement": "inhibition at 0.1 µg/mL", "setting": "[5]; 0.1 μg/mL", "value": 100, "unit": "%"},
      {"measurement": "inhibition at 0.5 µg/mL", "setting": "[5]; 0.5 μg/mL", "value": 50, "unit": "%"},
      {"measurement": "inhibition at 1 µg/mL", "setting": "[5]; 1.0 μg/mL", "value": 5, "unit": "%"},
      {"measurement": "inhibition at 10 µg/mL", "setting": "[5]; 10 μg/mL", "value": 1, "unit": "%"},
      {"measurement": "inhibition at 0.1 µg/mL", "setting": "[6]; 0.1 μg/mL", "value": 100, "unit": "%"},
      {"measurement": "inhibition at 0.5 µg/mL", "setting": "[6]; 0.5 μg/mL", "value": 100, "unit": "%"},
      {"measurement": "inhibition at 1 µg/mL", "setting": "[6]; 1.0 μg/mL", "value": 80, "unit": "%"},
      {"measurement": "inhibition at 10 µg/mL", "setting": "[6]; 10 μg/mL", "value": 60, "unit": "%"},
      {"measurement": "Number of Metastases (mean ± S.D.)", "setting": "[7]", "value": "0.33 ± 0.33"}
    ]}
  ]
}
